Laboratory results reported in patent publication US20200392158A1, “INHIBITORS OF LEUCINE RICH REPEAT KINASE 2” (GLAXOSMITHKLINE INTELLECTUAL PROPERTY DEVELOPMENT LIMITED, priority 2017, published 2020).

These compounds were tested against T1, full length G2019 human LRRK2 (Homo sapiens, UniProt Q5S007, R50H) (assay: Full length G2019 human LRRK2 inhibition mass spectrometry assay). Conditions: LRRKtide to phospho-LRRKtide conversion, RapidFire MS, 2 mM ATP.
T1 construct: made in house; host or cells: HEK293 6E cells transduced with BacMam virus (virus generated in Sf9 cells)
T1 sequence (Q5S007 with tags, fused parts or gaps R50H): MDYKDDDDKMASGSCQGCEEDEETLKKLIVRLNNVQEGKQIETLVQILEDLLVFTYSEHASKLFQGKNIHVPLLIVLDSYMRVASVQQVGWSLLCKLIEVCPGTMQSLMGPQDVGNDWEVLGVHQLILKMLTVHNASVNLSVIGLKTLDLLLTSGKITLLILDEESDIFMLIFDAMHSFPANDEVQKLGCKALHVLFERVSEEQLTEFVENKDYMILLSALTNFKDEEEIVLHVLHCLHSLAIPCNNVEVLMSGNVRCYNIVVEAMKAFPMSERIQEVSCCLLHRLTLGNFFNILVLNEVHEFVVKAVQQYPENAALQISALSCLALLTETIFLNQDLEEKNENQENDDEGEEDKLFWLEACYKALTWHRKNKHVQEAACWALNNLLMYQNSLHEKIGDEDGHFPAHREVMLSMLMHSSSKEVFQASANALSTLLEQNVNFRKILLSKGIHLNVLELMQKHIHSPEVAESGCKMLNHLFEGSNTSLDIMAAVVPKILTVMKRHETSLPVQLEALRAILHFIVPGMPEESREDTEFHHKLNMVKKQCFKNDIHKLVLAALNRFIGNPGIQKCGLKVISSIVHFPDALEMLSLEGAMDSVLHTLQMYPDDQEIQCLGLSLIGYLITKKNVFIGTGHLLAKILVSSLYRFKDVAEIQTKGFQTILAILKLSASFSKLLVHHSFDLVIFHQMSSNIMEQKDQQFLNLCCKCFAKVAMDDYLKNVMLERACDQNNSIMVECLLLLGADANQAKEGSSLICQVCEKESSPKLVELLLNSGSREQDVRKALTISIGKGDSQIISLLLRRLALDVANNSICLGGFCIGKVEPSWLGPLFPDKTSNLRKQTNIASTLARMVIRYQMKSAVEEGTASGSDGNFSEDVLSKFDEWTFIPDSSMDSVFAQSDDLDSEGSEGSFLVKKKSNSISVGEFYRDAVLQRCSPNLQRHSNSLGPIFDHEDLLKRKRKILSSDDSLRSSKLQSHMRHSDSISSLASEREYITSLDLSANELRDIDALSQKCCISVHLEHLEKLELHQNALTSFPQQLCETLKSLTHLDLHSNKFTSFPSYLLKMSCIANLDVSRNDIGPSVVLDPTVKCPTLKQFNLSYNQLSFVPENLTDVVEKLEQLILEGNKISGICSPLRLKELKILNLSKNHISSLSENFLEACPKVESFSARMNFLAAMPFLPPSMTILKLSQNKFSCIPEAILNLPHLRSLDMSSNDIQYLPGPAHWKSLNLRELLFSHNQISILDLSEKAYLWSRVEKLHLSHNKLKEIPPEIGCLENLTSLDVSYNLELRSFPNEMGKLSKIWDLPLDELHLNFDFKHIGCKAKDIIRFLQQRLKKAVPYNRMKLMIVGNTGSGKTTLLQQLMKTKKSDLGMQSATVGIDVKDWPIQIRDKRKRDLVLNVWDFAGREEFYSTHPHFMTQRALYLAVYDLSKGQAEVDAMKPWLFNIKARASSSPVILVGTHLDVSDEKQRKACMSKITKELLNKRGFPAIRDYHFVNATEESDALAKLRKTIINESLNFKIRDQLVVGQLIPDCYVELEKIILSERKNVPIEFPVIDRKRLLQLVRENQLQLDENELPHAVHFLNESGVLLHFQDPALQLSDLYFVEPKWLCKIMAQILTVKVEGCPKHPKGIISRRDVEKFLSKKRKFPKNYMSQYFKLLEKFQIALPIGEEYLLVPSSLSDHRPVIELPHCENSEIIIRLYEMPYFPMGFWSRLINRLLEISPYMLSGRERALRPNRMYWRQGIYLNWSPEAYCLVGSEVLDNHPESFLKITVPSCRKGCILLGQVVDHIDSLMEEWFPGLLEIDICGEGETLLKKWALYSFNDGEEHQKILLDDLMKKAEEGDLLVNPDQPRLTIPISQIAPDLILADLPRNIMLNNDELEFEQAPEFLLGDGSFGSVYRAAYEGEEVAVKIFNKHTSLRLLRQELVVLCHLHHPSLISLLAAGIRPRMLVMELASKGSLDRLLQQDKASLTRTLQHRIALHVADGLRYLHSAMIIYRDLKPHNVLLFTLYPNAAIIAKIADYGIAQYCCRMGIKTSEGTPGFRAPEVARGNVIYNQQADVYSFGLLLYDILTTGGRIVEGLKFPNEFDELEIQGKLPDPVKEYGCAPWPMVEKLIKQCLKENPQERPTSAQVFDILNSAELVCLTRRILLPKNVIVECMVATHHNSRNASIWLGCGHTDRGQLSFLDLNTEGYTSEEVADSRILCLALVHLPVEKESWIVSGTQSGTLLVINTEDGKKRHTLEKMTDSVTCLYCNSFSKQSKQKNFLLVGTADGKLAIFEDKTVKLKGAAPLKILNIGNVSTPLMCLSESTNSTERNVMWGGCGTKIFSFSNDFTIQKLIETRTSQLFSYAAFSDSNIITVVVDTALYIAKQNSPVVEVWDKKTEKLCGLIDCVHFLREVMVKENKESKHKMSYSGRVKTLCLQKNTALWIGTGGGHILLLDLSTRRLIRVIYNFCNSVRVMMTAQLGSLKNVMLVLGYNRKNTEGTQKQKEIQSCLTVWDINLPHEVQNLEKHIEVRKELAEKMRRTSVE
Format: biochemical
Procedure: a. Full Length G2019 Human LRRK2 Inhibition Mass Spectrometry Assay
This assay for Leucine Rich Repeat Kinase 2 (LRRK2) inhibition is based on the direct measurement of the peptide ‘LRRKtide’ (LRRKtide: RLGRDKYKT*LRQIRQ and “*” refers to the site of phosphorylation.) and phosphorylated ‘LRRKtide’ using a high throughput Rapid Fire mass spectrometry assay. Inhibitors are compounds that reduce the conversion of LRRKtide to phospho-LRRKtide.
• 1) Compounds were dissolved in 100% DMSO at a concentration of 10 mM, and 11-point dose response curves generated using a 1 in 4 serial dilution in DMSO. 100 nL of this dilution series was then added to a 384 well, v bottom polypropylene plate (Greiner 781280), excluding columns 6 and 18. 100 nL of DMSO were added to column 6 to serve as the high control, while column 18 served as the low control containing assay buffer in place of the LRRK2 protein. Assay dilution gave a top final assay concentration of test compound of […] • 2) 5 μL of ‘enzyme solution’ containing 2× final assay concentration of purified recombinant Full length Flag-LRRK2 in assay buffer (50 mM Hepes, pH 7.2, 10 mM MgCl2, 150 mM NaCl, 5% glycerol, 0.0025% Triton X-100 and 1 mM DTT) were added to all wells using a Multidrop Combi dispenser (ThermoFisher Scientifiec), giving a final assay concentration of 25 nM LRRK2 enzyme (final concentration may vary depending on specific activity of different enzyme batches). • 3) 5 μL of substrate solution containing 50 μM LRRKtide peptide substrate and […] was added to all wells of the plate using a Multidrop Combi dispenser giving a final assay concentration of 25 μM LRRKtide peptide and 2 mM ATP. Test plates were then incubated for 1 hour at room temperature. (Incubation may vary depending on rate and linearity of reaction with different enzyme batches). • 4) 50 μl of 1% formic acid in laboratory grade water was added to all wells to quench the reaction, and plates were heat-sealed prior to centrifugation at 1348×g for 10 minutes. Test plates were then analysed on an Agilent RapidFire High Throughput solid phase extraction system coupled to AB Sciex API 4000 triple quadropole mass spectrometer with the following setting:
• Sip Height=2 mm, Aspirate=500 ms, Load time=3000 ms, Elution time=3000 ms, Requilibration=500 ms. • Flow rates: pump 1=1.5 mL/min, pump 2 1.25 mL/min pump 3=0.8 mL/min
Mass Spectrometer Settings: • LRRKtide Detection settings: Q1 mass 644.8 Da, Q3 mass 638.8, declustering potential 76 volts, collision energy 37 volts, CXP 34 volts. • Phospho-LRRKtide Detection settings: Q1 mass 671.4 Da, Q3 mass 638.8, Declustering potential 76 volts, Collision energy 37 volts, CXP 34 volts. • A C4 cartridge was used and running buffers were: A (aqueous) 0.1% formic acid in water B (organic) 0.1% formic acid, 80% acetonitrile, 20% water. • Collision gas: 12, Curtain gas: 25, Ion Source gas (1): 60, Ion Source gas (2): 60, Ion Spray Voltage: 5500, Temperature: 600, Interface Heater: ON. • Resolution Q1: low, Resolution Q3: low. • 5) Data were analysed using ActivityBase software (IDBS). A percent conversion from LRRKtide to Phospho-LRRKtide was calculated using the following formula:
% conversion=(Phospho-LRRKtide product peak area/(Phospho-LRRKtide product peak area+LRRKtide substrate peak area))*100 • A logistic 4 parameter curve fit was applied, using the following formula,
[formula] • Where x is the concentration of test sample, y is inhibition (%), a is the minimum, b is the Hill slope, c is the IC50 and d is the maximum. From this, the pIC50 was derived (−log IC50).
In the case of `Cc1c2c(nn1C1CC3CCC(C1)O3)OCCCNc1nc(ncc1Cl)N2` (single isomer, unassigned) [E244, 14-Chloro-4-methyl-5-{8-oxabicyclo[3.2.1]octan-3-yl}-8-oxa-2,5,6,12,16,17-hexaazatricyclo[11.3.1.0^3,7] heptadeca-1(16),3,6,13(17),14-pentaene], the IC50 is reported as ≤ 0.1 µM. With `Cc1c2c(nn1C1CN(C3COC3)CCC1F)OCC[C@@H](C)Nc1nc(ncc1Cl)N2` (single isomer, unassigned) [E404] the IC50 was ≤ 0.1 µM. With `COCC1CCOc2nn(C3CCOCC3F)c(C)c2Nc2ncc(Cl)c(n2)N1` (single isomer, unassigned) [E357, 14-Chloro-5-(3-fluorooxan-4-yl)-11-(methoxymethyl)-4-methyl-8-oxa-2,5,6,12,16,17-hexaazatricyclo [11.3. 1.0^3,7]heptadeca-1(16),3,6,13(17),14-pentaene] the IC50 was ≤ 0.1 µM. With `Cc1c2c(nn1C1CCCOC1)OCC(C)CNc1nc(ncc1Cl)N2` (single isomer, unassigned) [E308, 14-Chloro-4,10-dimethyl-5-(oxan-3-yl)-8-oxa-2,5,6,12,16,17-hexaazatricyclo[11.3.1.0^3,7]heptadeca-1(16),3,6, 13(17),14-pentaene] the IC50 was ≤ 0.1 µM. `Cc1c2c(nn1C1CCOC1)OCCCNc1nc(ncc1Cl)N2` (single isomer, unassigned) [E124, 14-chloro-4-methyl-5-(oxolan-3-yl)-8-oxa-2,5,6,12,16,17-hexaazatricyclo[11.3.1.0^3,7]heptadeca-1(16),3,6,13(17), 14-pentaene] was tested, and the IC50 was ≤ 0.1 µM. In the case of `Cc1c2c(nn1C1CC3CCC(C1)O3)OCCC(C)Nc1nc(ncc1Cl)N2` (single isomer, unassigned) [E251, 14-Chloro-4,11-dimethyl-5-{8-oxabicyclo[3.2.1]octan-3-yl}-8-oxa-2,5,6,12,16,17-hexaazatricyclo[11.3.1.0^3,7] heptadeca-1(16),3,6,13(17),14-pentaene], the IC50 is reported as ≤ 0.1 µM. With `COc1cnc2nc1N[C@H](C)CCOc1nn(C3CCOCC3)c(C)c1N2` [E294, (11R)-14-Methoxy-4,11-dimethyl-5-(oxan-4-yl)-8-oxa-2,5,6,12,16, 17-hexaazatricyclo[11.3.1.0^3,7]heptadeca-1(16),3,6,13(17),14-pentaene] the IC50 was ≤ 10 µM. In the case of `Cc1c2c(nn1CCN1CCC(F)C1)OCCC(C)Nc1nc(ncc1Cl)N2` (single isomer, unassigned) [E216, 14-Chloro-5-[2-(3-fluoropyrrolidin-1-yl)ethyl]-4,11-dimethyl-8-oxa-2,5,6,12,16,17-hexaazatricyclo [11.3.1.0^3,7] heptadeca-1(16),3,6,13(17),14-pentaene], the IC50 is reported as 100 µM. For `Cc1c2c(nn1C1CCC(C(F)(F)F)CC1)OCCC(C)Nc1nc(ncc1Cl)N2` (single isomer, unassigned) [E280, 4-Chloro-4,11-dimethyl-5-[4-(trifluoromethyl)cyclohexyl]-8-oxa-2,5,6,12,16,17-hexaazatricyclo[11.3.1.0^3,7] heptadeca-1(16),3,6,13(17),14-pentaene], the IC50 was ≤ 10 µM. In the case of `Cc1c2c(nn1C1CCOCC1F)OCCC(C)Nc1nc(ncc1Cl)N2` (single isomer, unassigned) [E28, 14-chloro-5-(3-fluorooxan-4-yl)-4,11-dimethyl-8-oxa-2,5,6,12,16,17-hexaazatricyclo [11.3.1.0^3,7]heptadeca-1(17),3,6,13,15-pentaene], the IC50 is reported as ≤ 0.1 µM. For `Cc1c2c(nn1C1(C(F)(F)F)CCOCC1)OCCCNc1nc(ncc1Cl)N2` [E418, 14-Chloro-4-methyl-5-[4-(trifluoromethyl)oxan-4-yl]-8-oxa-2,5,6,12,16,17-hexaazatricyclo[11.3.1.0^3,7]heptadeca-1(16),3,6,13(17),14-pentaene], the IC50 was ≤ 0.1 µM. For `Cc1c2c(nn1C1CCOCC1)OCC(C)C(C)Nc1nc(ncc1Cl)N2` (single isomer, unassigned) [E34, 14-chloro-4,10,11-trimethyl-5-(oxan-4-yl)-8-oxa-2,5,6,12,16,17-hexaazatricyclo [11.3.1.0^3,7]heptadeca-1(16),3,6,13(17),14-pentaene], the IC50 was ≤ 10 µM. In the case of `Cc1c2c(nn1C(C)C1CCOCC1)OCCC(C)Nc1nc(ncc1Cl)N2` (single isomer, unassigned) [E185, 14-Chloro-4,11-dimethyl-5-[1-(oxan-4-yl)ethyl]-8-oxa-2,5,6,12,16,17-hexaazatricyclo[11.3.1.0^3,7]heptadeca-1(16),3,6,13(17),14-pentaene], the IC50 is reported as ≤ 10 µM. With `Cc1c2c(nn1C1CCOCC1(F)F)OCCCNc1nc(ncc1Cl)N2` (single isomer, unassigned) [E414] the IC50 was ≤ 0.1 µM. For `Cc1c2c(nn1C1CCOCC1F)OCCC(C)Nc1nc(ncc1Cl)N2` (single isomer, unassigned) [E26, 14-chloro-5-(3-fluorooxan-4-yl)-4,11-dimethyl-8-oxa-2,5,6,12,16,17-hexaazatricyclo [11.3.1.0^3,7]heptadeca-1(17),3,6,13,15-pentaene], the IC50 was ≤ 10 µM. For `Cc1c2c(nn1CCN1C[C@H]3C[C@@H]1CO3)OCCC(C)Nc1nc(ncc1Cl)N2` (single isomer, unassigned) [E209], the IC50 was ≤ 10 µM. For `Cc1c2c(nn1C1CCOCC1)OCCNc1nc(ncc1Cl)N2` [E138, 13-Chloro-4-methyl-5-(oxan-4-yl)-8-oxa-2,5,6,11,15,16-hexaaza tricyclo[10.3.1.0^3,7]hexadeca-1(15),3,6,12(16),13-pentaene], the IC50 was ≤ 10 µM. `CCN1CCCOc2nn(C3CCOCC3)c(C)c2Nc2ncc(Cl)c1n2` [E360, 14-Chloro-12-ethyl-4-methyl-5-(oxan-4-yl)-8-oxa-2,5,6,12,16,17-hexaazatricyclo[11.3.1.0^3,7]heptadeca-1(16),3,6,13(17),14-pentaene] was tested, and the IC50 was ≤ 10 µM. For `Cc1c2c(nn1C1CCOC1)OCCCNc1nc(ncc1C(F)(F)F)N2` (single isomer, unassigned) [E128, 4-methyl-5-(oxolan-3-yl)-14-(trifluoromethyl)-8-oxa-2,5,6,12,16,17-hexaazatricyclo[11.3.1.0^3,7]heptadeca-1(16),3,6,13(17),14-pentaene], the IC50 was ≤ 0.1 µM. `Cc1c2c(nn1C1CN(C3CCCOC3)C1)OC[C@@H](F)[C@@H](C)Nc1nc(ncc1Cl)N2` (stereo partly drawn) [E390, (10S, 11R)-14-Chloro-10-fluoro-4,11-dimethyl-5-[1-(oxan-3-yl)azetidin-3-yl]-8-oxa-2,5,6,12,16,17-hexaazatricyclo [11.3.1.0^3,7]heptadeca-1(16)53,6,13(17),14-pentaene] was tested, and the IC50 was ≤ 0.1 µM. `Cc1c2c(nn1CCN1CCC(F)C1)OCCC(C)Nc1nc(ncc1Cl)N2` (single isomer, unassigned) [E217, 14-Chloro-5-[2-(3-fluoropyrrolidin-1-yl)ethyl]-4,11-dimethyl-8-oxa-2,5,6,12,16,17-hexaazatricyclo [11.3.1.0^3,7] heptadeca-1(16),3,6,13(17),14-pentaene] was tested, and the IC50 was ≤ 10 µM. In the case of `Cc1c2c(nn1C1CCC(N3C[C@H]4C[C@@H]3CO4)CC1)OCCC(C)Nc1nc(ncc1Cl)N2` (single isomer, unassigned) [E58], the IC50 is reported as ≤ 0.1 µM. With `Cc1c2c(nn1C1CCOCC1C)OCCCNc1nc(ncc1Cl)N2` (single isomer, unassigned) [E140, 14-chloro-4-methyl-5-(3-methyloxan-4-yl)-8-oxa-2,5,6,12,16,17-hexaazatricyclo[11.3.1.0^3,7]heptadeca-1(16),3,6,13(17),14-pentaene] the IC50 was ≤ 0.1 µM. For `Cc1c2c(nn1C1CCOCC1F)OCCCNc1nc(ncc1Cl)N2` (single isomer, unassigned) [E236, 14-Chloro-5-(3-fluorooxan-4-yl)-4-methyl-8-oxa-2,5,6,12,16,17-hexaazatricyclo[11.3.1.0^3,7]heptadeca-1(16),3,6,13 (17),14-pentaene], the IC50 was ≤ 0.1 µM.
